Results on three compounds are retold here after US20240226054A9, “AGENTS AND METHODS FOR PREVENTING AND TREATING SKELETAL MUSCLE DISEASES” (The Regents Of the University of California, priority 2022, published 2024).

Entries after “also recorded” stand apart in the source; their conditions may differ. Read-outs that look alike come from different tables or passages of the source.

The test system of data set [1] is soleus muscle from the Nav1.4-R669H mouse. In kind it is cell-based. How it is done: (§1) Mouse Model of HypoPP. Knock-in mutant mouse models of HypoPP were previously generated; Type 1 with a missense mutation of the Cav1.1 calcium channel (Cacnals p.R528H) and Type 2 with a missense mutation of the Nav1.4 sodium channel (Scn4a p.R663H) homologous to the p.R669H missense mutation in patients with HypoPP Type 2. Mutant mice have a robust HypoPP phenotype with loss of force and paradoxical depolarization of skeletal muscle in response to a challenge in low extracellular [K^+] (<3 mM) or to intravenous administration of insulin plus glucose.
Ex vivo Contraction Studies. The outcome measure for susceptibility to HypoPP was the peak isometric force of the soleus muscle, in response to a tetanic stimulation, as previously described. In brief, after euthanizing the animal, the extensor digitorum longus (EDL) muscle or the soleus muscle was dissected free and suspended in a tissue bath held at 37° C. […] Muscles were suspended in a bicarbonate-buffered bath that was bubbled continuously with 5% CO2/95% 02 to maintain a pH of 7.4. The standard bath consisted of (in mM): 118 NaCl, 4.75 KCl, 1.18 MgSO4, 2.54 CaCl2), 1.18 NaH2PO4, 10 glucose, and 24.8 NaHCO3. The low-K^+ solution was identical, except for the reduction of KCl to 2 mM by replacement with NaCl. The osmolality of all solutions was 290 mOsm. Retigabine (gift from Prof. M. Taglialatela, Univ. […] The Kv7 inhibitor, XE991 (Sigma-Aldrich), was prepared in as a 100 mM DMSO stock solution and applied to muscle in a […] bath solution.
Electrical stimulation was applied by a pair of platinum wires, oriented perpendicular to the long axis of the soleus muscle. Suprathreshold stimulation (80 mA) was applied as a tetanic burst (40 pulses, 0.4 msec, at 100 Hz), under computer control. All bath solutions contained 0.25 mM D-tubocurarine (Sigma-Aldrich) to prevent any contribution to muscle excitation from motor nerve endings. Muscle force was measured with a stiff strain gain (Forte 25, World Precision Instruments) and digitally sampled at 5 KHz. Muscle contractility was monitored by measuring the peak isometric force every two minutes, and test solutions were applied by complete exchange of the bath solution.
The efficacy of potassium channel openers to prevent the loss of force in HypoPP muscle was assessed by measuring isometric contractions, ex vivo, in both control (4.7 mM) and low extracellular [K^+] (2.0 mM). The HypoPP phenotype is shown for the drug-free responses of the soleus muscle from an Nav1.4-R669H mouse in the left panel of FIG. 1A. The peak isometric force during the tetanic contraction (100 Hz stimulation) was initially 11.7 gm in control [K^+], and then decreased to 7.6 gm (35% decrease) after 4 min. in 2 mM [K^+]. The loss of force is reversible, upon return to 4.7 mM [K^+] (e.g., see FIG. 1B).
A method to quantify the extent of protection from loss of force by retigabine is illustrated in FIG. 2. This example was selected to illustrate the maximum variability in the extent of protection for the oscillations of soleus muscle force within a single trial (compare the responses at 24 min to those at 40 min.). […] The relative protection was calculated from the responses for each pair of soleus muscles from the same mouse serving as an internal control. In almost every trial (22 out of 24), two clear minima occurred during the 30 min. low-K^+ challenge. The relative protection for the retigabine response, defined as 1−(force loss in retigabine)/(force loss in control) was calculated for each of the two minima, and the average value was used as the quantitative estimate for the retigabine protection in that trial. Each soleus muscle was used for only a single trial (i.e. control or retigabine) because cumulative effects and run-down may occur if this long protocol (typically 70 min.) was repeated.

Data set [2] concerns human HypoPP muscle. To be noted: 100 mM pinacidil; cited from earlier work.
The conditions of data set [3]: chronic use as antiepileptic, cited from earlier work.
The subject of data set [4] is EDL fibers from the Nav1.4-R669H mouse. In words: Membrane potential measurements (resting potential, microelectrode impalement). In kind it is cell-based. The procedure:
Membrane Potential Measurements. The membrane potential was recorded by impalement of superficial fibers from an ex vivo whole mount of the EDL muscle. Long-duration stable recording of the resting potential was achieved by using an orthogonal approach to the fiber with fine-tipped microelectrodes (resistance of 15-20 MW, filled with 3 M KCl). The bath solution was the same as that used for the ex vivo contraction studies, continuously bubbled with 5% CO2/95% O2, with a flow rate of ˜3 ml/min of the 0.3 ml recording chamber.
The impairment of contraction during an episode of HypoPP is caused by sustained depolarization, which inactivates sodium channels and reduces muscle fiber excitability. In HypoPP, ictal depolarization of the resting potential (Vrest) paradoxically occurs in low K^+ that would normally hyperpolarize the membrane from a negative shift of the K^+ Nernst potential (EK). It was tested whether retigabine prevents or reverses this paradoxical depolarization of HypoPP fibers exposed to low K^+. […] Reduction of K^+ to 2 mM or even 1 mM caused hyperpolarization of WT fibers, as expected from the negative shift of EK (FIG. 5A, gray shaded regions). At an extremely low K^+ of 0.5 mM, even WT fibers paradoxically depolarized (magenta region) as previously described. For EDL fibers from the Nav1.4-R669H mouse, the more modest K^+ reductions to 2 mM or 1 mM elicited paradoxical depolarization, which is the membrane potential equivalent of ictal HypoPP. […] These observations support the view that the beneficial effects of retigabine occur by a stabilizing effect on the normally polarized value of Vrest.

The subject of data set [5] is EDL muscle from the Cav1.1-R528H mouse. In words: Ex vivo contraction test, low-K+ challenge, HypoPP EDL muscle. In kind it is cell-based. How it is done: as §1
Ex vivo Contraction Studies. The outcome measure for susceptibility to HypoPP was the peak isometric force of the soleus muscle, in response to a tetanic stimulation, as previously described. In brief, after euthanizing the animal, the extensor digitorum longus (EDL) muscle or the soleus muscle was dissected free and suspended in a tissue bath held at 37° C. […] Muscles were suspended in a bicarbonate-buffered bath that was bubbled continuously with 5% CO2/95% 02 to maintain a pH of 7.4. The standard bath consisted of (in mM): 118 NaCl, 4.75 KCl, 1.18 MgSO4, 2.54 CaCl2), 1.18 NaH2PO4, 10 glucose, and 24.8 NaHCO3. […]
Electrical stimulation was applied by a pair of platinum wires, oriented perpendicular to the long axis of the soleus muscle. […] Muscle force was measured with a stiff strain gain (Forte 25, World Precision Instruments) and digitally sampled at 5 KHz. Muscle contractility was monitored by measuring the peak isometric force every two minutes, and test solutions were applied by complete exchange of the bath solution.
A method to quantify the extent of protection from loss of force by retigabine is illustrated in FIG. 2. […] The relative protection was calculated from the responses for each pair of soleus muscles from the same mouse serving as an internal control. […] The relative protection for the retigabine response, defined as 1−(force loss in retigabine)/(force loss in control) was calculated for each of the two minima, and the average value was used as the quantitative estimate for the retigabine protection in that trial. […]

Data set [6] deals with soleus muscle obtained from the knock-in mutant mouse model of HyperPP. In words: In vitro contraction test, high K challenge, HyperPP soleus muscle. In kind it is cell-based. The procedure: The two paired muscles (left and right) were tested in separate organ baths. […] At 40 min into the study, a high K challenge was performed by exchanging the 4.7 mM K+ bath with one containing 10 mM K+.

For data set [7], the target named is Kv7.1 (Homo sapiens, UniProt P51787). To be noted: cited from earlier work.
Data set [8] deals with mouse. To be noted: 30 mg/kg retigabine; cited from earlier work.
Data set [9] concerns pharmacological model of Andersen-Tawil Syndrome (barium blocks Kir potassium channels). In words: Low K challenge in pharmacological model of Andersen-Tawil Syndrome (50 μM barium). In kind it is cell-based. The note with it: pre-administration of 10 μM retigabine. How it is done: A pharmacological model of Andersen-Tawil Syndrome (ATS) is created, in vitro, with a low concentration of barium (50 μM), which blocks Kir potassium channels. Kir2.1 is deficient from loss of function mutations of the KCNJ2 gene in ATS.

Data set [10] concerns rat. To be noted: 30 mg/kg retigabine; cited from earlier work.
The conditions of data set [11]: cited from earlier work.
Data set [12] concerns mouse muscle (mouse models of myotonia). To be noted: cited from earlier work.

Chain of Kv7.1 (P51787 whole entry): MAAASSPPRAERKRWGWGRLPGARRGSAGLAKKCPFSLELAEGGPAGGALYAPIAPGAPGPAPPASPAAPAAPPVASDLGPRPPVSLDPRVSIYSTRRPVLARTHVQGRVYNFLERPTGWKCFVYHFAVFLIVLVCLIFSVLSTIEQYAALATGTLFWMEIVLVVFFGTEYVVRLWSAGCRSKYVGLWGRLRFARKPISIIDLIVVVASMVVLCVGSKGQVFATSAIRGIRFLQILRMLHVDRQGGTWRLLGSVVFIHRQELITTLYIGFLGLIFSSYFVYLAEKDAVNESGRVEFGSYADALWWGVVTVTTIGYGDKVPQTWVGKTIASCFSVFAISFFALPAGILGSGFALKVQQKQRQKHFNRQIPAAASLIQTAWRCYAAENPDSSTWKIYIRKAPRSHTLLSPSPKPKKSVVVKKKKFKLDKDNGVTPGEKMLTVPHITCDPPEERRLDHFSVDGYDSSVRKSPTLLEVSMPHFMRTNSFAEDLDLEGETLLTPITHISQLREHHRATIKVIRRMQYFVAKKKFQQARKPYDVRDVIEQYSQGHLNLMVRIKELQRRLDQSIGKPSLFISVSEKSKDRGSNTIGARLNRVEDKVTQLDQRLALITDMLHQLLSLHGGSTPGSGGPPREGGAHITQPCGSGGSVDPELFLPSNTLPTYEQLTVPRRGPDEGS

In the case of `Cc1cc(N2CCc3cc(F)ccc3C2)cc(C)c1NC(=O)CC(C)(C)C` [XEN1101, N-[4-(6-fluoro-3,4-dihydro-1H-isoquinolin-2-yl)-2,6-dimethylphenyl]-3,3-dimethylbutanamide], in data set [1] (XEN1101 10 μM at 10 min), the “increase in baseline force” value is given as 20%.

Consider `CC(N/C(=N\C#N)Nc1ccncc1)C(C)(C)C` (centres unmarked) [pinacidil], for which, in data set [2], the “protection against loss of force” value is “protect against loss of force”. Also, in data set [1] (pinacidil pre-treatment), the “protection from loss of force in a low-K+ challenge” value is reported as “protects HypoPP muscle from a loss of force”.

The term Cmax denotes the highest concentration seen after dosing. A word on the half-life: it is the time needed for the level to fall by half in the phase considered. With `CCOC(=O)Nc1ccc(NCc2ccc(F)cc2)cc1N` [retigabine, ethyl [2-amino-4-[[(4-fluorophenyl)methyl]amino]phenyl]carbamate], the “side effects leading to discontinuation” value in [3] was “skin discoloration”; in data set [3] (listed as Retigabine), “skin discoloration and eye abnormalities”. For the same compound, the “Vrest of normally polarized muscle fibers” value in data set [4] (4.7 K+, retigabine added) is “does not affect Vrest”. Moreover, the “resting potential of paradoxically depolarized HypoPP fibers (rescue)” value in data set [4] (retigabine added while low K+ unchanged) is “repolarized to the normal Vrest; also recorded: induced fiber repolarization”. The “paradoxical depolarization of HypoPP fibers during low K+ challenge (protection)” value in [4] (retigabine applied before low K+ (1.0 or 2.0 mM)) is “prevented the paradoxical depolarization”. Also, the “relative peak force, sustained value after recovery” value in [5] (10 μM retigabine in 2 mM K+, EDL) is given as 0.83; in data set [1] (10 μM retigabine in 2 mM K+, soleus), 0.83. In addition, the “recovery from on-going loss of force in low K+” value in data set [5] (10 μM retigabine, vs contralateral control) was “Rescue; also recorded: induced a recovery of relative peak force”. For the same compound, the “relative force before the low-K+ challenge on addition of retigabine” value in data set [5] (0.1 to 20 mM, Cav1.1-R528H EDL) was “not affected”; in data set [1] (0.1 to 20 mM, Nav1.4-R669H soleus) it was “not affected”. In addition, the “attenuation of the loss of force” value in [6] (10 μM retigabine pre-treatment, 10 mM K+ challenge) is given as “about 50%”. The “maximal force after retigabine before challenge (relative)” value in [6] (10 μM retigabine, 4.7 mM K+) is recorded as “about 1.0”. In data set [6] (retigabine (10 μM)), the “prevention of loss of force in HyperPP model” value was “partially effective”. The “recovery of force on return of bath K+ to 4.7 mM” value in data set [6] (retigabine exposed muscle) is given as “full recovery of force”. Also, in data set [7], the “sensitivity of Kv7.1 to retigabine relative to Kv7.2-Kv7.5 (fold less sensitive)” value is 100 fold. Moreover, the “force with tetanic contractions lasting seconds” value in data set [8] and in data set [10] was “loss of force” each time. The “prevention of loss of muscle force with a low K challenge (2 mM)” value in data set [9] was “effective a preventing the loss of muscle force”. The “protection from low-K+ induced loss of force” value in [1] (1 μM retigabine pre-treatment) is reported as “substantial protection”; in data set [1] (10 μM retigabine pre-treatment, K+ 4.7 mM to 2 mM) it was “completely suppressed any detectable loss of force”. For the same compound, the “loss of peak force during 30 min challenge with 2 mM K+” value in data set [1] (2 μM retigabine pre-treatment) is reported as “markedly attenuated the loss of peak force”. Besides, the “trials with enhanced recovery” value in data set [1] (10 μM retigabine applied during 2 mM K+) was 5 of 6. The “relative force in the 2 mM [K+] challenge” value in data set [1] (10 μM retigabine pre-treatment, representative responses FIG. 1B) is recorded as over 0.85. Also, the “improved level of tetanic force in retigabine, of baseline” value in [1] (10 μM retigabine, still in 2 mM K+ bath, n=3) turned out to be 83.2%. The “baseline force in 4.7 mM K+” value in [1] (bath containing 10 μM retigabine) was “unchanged”. The “impairment of peak isometric force” value in data set [1] (up to 20 μM retigabine, 400 msec tetanic contraction every two minutes for two hrs) was “no impairment”. Besides, the “protein binding (assumed)” value in data set [11] (assumption for unbound fraction) is recorded as 80%. The Cmax in data set [11] (single 100 mg oral dose) was 390 ng/mL. Besides, the half-life in [11] (single 100 mg oral dose) is 8 h. Besides, the “fiber input resistance, resting potential or action potential properties (current-clamp)” value in data set [12] (20 mM retigabine) was “did not detect a change”. Besides, the “reduction of ex vivo tetanic force” value in [12] (20 or 30 mM retigabine) was “did not report a reduction”. Further, the “after-discharges in mouse models of myotonia” value in [12] (low-dose retigabine) is given as “suppresses after-discharges”.
